This is an account of results in paper PMC6071684, “Defining the hydrophobic interactions that drive competence stimulating peptide (CSP)-ComD binding in Streptococcus pneumoniae” (Beilstein Journal of Organic Chemistry, 2018).

Where a SMILES comes first, the peptide text is derived from it. [ ]: non-standard residue; d: D form. Phg = N[C@H](C(=O)O)c1ccccc1; Nle = CCCC[C@H](N)C(=O)O; Nva = CCC[C@H](N)C(=O)O

One assay deals with ComD1 receptor (Streptococcus pneumoniae serotype 2, UniProt A0A0H2ZM50). The experiment in a line: cell-based. The method, then: (§1) To assess QS modulation, we utilized the β-gal reporter strains, constructed by Lau and co-worker. In these strains the lacZ gene is under the control of QS (pcomX). Thus, upon QS activation, ComE will bind pcomX and transcribe lacZ (in addition to upregulation of ComX). ComD modulation can therefore be quantified by measuring β-gal activity. The peptides were first screened for their ability to activate/inhibit the ComD1 and ComD2 receptors at high concentration (10 µM).
(§2) To examine the ability of the synthesized CSP analogs to modulate the ComD receptors, and thus the QS circuit in S. pneumoniae, β-galactosidase assays were performed using D39pcomX::lacZ (group I) and TIGR4pcomX::lacZ (group II) reporter strains as described in [19].
(§3) Bacterial growth conditions. Bacteria from a freezer stock were grown as described in [19]. Briefly, the bacteria were streaked into a THY agar plate supplemented with 5% donor horse serum and chloramphenicol at a final concentration of 4 µg/mL. The plate was incubated for 8 h in a CO2 incubator (37 °C with 5% CO2). Fresh colonies (single colony for D39pcomX::lacZ; multiple colonies for TIGR4pcomX::lacZ) were picked into sterilized cultural tubes containing 5 mL of THY broth supplemented with chloramphenicol at a final concentration of 4 µg/mL and the cultures were incubated in a CO2 incubator overnight (15 h). Overnight cultures were then diluted (1:50 for D39pcomX::lacZ; 1:10 for TIGR4pcomX::lacZ) with THY and the resulting solution was incubated in a CO2 incubator for 3–4 hours, until the bacteria reached early exponential stage (0.30–0.35 for D39pcomX::lacZ; 0.20–0.25 for TIGR4pcomX::lacZ) as determined by using a plate reader.
(§4) β-Galactosidase assay. Activation assays. […] Briefly, an initial activation screening was performed at high concentration (10 µM) for all CSP analogs. 2 µL of 1 mM solution of CSP analogs in dimethyl sulfoxide (DMSO) were added in triplicate to a clear 96-well microtiter plate. […] 2 µL of DMSO was added in triplicate and served as the negative control for both groups. Then, 198 µL of bacterial culture was added to each well containing CSP and analogs, the plate was incubated at 37 °C for 30 minutes, and the OD600nm was measured. In order to measure the β-galactosidase activity in the pneumococcal culture, the cells were lysed by incubating the culture for 30 minutes at 37 °C with 20 µL of 0.1% Triton X-100. In a new plate, 100 µL of Z-buffer solution (60.2 mM Na2HPO4, 45.8 mM NaH2PO4, 10 mM KCl, and 1.0 mM MgSO4 in 18 MΩ H2O; pH was adjusted to 7.0 and the buffer was sterilized before use) containing 2-nitrophenyl-β-D-galactopyranoside (ONPG) at a final concentration of 0.4 mg/mL was added, followed by 100 µL of lysate, and the plate was incubated for 3 hours at 37 °C. The reaction was stopped by adding 50 µL of 1 M sodium carbonate solution, and the OD420nm and OD550nm were measured using a plate reader. […] For calculation of Miller units, please see data analysis below.
(§5) Analysis of activation/inhibition data. Miller units were calculated using the following formula: […]
(§6) Abs420 is the absorbance of ortho-nitrophenol (ONP). Abs550 is the scatter from cell debris, which, when multiplied by 1.75 approximates the scatter observed at 420 nm. t is the duration of incubation with ONPG in minutes, v is volume of lysate in milliliters, and Abs600 reflects cell density.

In another assay the target is ComD2 receptor (Streptococcus pneumoniae serotype 4, UniProt A0A0H2US84). The experiment in a line: cell-based. How it is done: as §1, §2, §3, §4, §5, §6
Assay [1] has as its target ComD1 receptor (S. pneumoniae (endogenous in D39pcomX::lacZ)).

Sequence of ComD2 receptor (A0A0H2US84 entry or part of it): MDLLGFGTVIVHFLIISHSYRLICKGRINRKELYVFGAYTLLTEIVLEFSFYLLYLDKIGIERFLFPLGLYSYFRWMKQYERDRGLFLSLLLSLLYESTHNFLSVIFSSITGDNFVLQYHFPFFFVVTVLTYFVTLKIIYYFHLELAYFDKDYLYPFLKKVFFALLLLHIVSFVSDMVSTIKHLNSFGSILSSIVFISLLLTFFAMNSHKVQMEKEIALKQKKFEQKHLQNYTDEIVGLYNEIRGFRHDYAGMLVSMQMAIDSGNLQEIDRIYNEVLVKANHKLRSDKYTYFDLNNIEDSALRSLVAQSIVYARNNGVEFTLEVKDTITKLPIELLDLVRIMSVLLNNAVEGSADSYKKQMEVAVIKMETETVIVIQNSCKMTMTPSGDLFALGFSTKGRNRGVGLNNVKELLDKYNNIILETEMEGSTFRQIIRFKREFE
Sequence of ComD1 receptor (A0A0H2ZM50 entry or part of it): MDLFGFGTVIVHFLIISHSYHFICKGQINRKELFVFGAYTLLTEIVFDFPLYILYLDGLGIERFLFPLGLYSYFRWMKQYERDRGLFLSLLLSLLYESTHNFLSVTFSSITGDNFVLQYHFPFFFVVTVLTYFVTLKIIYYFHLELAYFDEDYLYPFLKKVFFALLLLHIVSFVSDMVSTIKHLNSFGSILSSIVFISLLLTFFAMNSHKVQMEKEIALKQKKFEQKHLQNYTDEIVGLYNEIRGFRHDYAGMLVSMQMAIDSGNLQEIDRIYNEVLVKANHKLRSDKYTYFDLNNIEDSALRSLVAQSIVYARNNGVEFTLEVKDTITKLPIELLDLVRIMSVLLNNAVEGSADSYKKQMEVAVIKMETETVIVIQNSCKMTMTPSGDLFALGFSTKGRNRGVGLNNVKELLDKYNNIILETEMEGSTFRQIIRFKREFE

Regarding `CC[C@H](C)[C@H](NC(=O)[C@H](Cc1ccccc1)NC(=O)[C@H](CC(=O)O)NC(=O)[C@H](CCCNC(=N)N)NC(=O)[C@H](Cc1ccccc1)NC(=O)[C@@H](NC(=O)[C@H](CCCCN)NC(=O)[C@H](CO)NC(=O)[C@H](CC(C)C)NC(=O)[C@H](CCCNC(=N)N)NC(=O)[C@H](CCSC)NC(=O)[C@@H](N)CCC(=O)O)c1ccccc1)C(=O)N[C@@H](CC(C)C)C(=O)N[C@@H](CCC(N)=O)C(=O)N[C@@H](CCCNC(=N)N)C(=O)N[C@@H](CCCCN)C(=O)N[C@@H](CCCCN)C(=O)O` [CSP1-F7FG] (H-EMRLSK[Phg]FRDFILQRKK-OH; N-terminus assumed), the EC50 at ComD1 receptor was 81.3 nM; at ComD2 receptor, 828 nM.

For the molecule `CC[C@H](C)[C@H](NC(=O)[C@H](Cc1ccccc1)NC(=O)[C@H](CC(=O)O)NC(=O)[C@H](CCCNC(=N)N)NC(=O)[C@H](Cc1ccccc1)NC(=O)[C@H](CCc1ccccc1)NC(=O)[C@H](CCCCN)NC(=O)[C@H](CO)NC(=O)[C@H](CC(C)C)NC(=O)[C@H](CCCNC(=N)N)NC(=O)[C@H](CCSC)NC(=O)[C@@H](N)CCC(=O)O)C(=O)N[C@@H](CC(C)C)C(=O)N[C@@H](CCC(N)=O)C(=O)N[C@@H](CCCNC(=N)N)C(=O)N[C@@H](CCCCN)C(=O)N[C@@H](CCCCN)C(=O)O` [CSP1-F7HF], the EC50 amounted to 81.7 nM on ComD1 receptor and 317 nM at ComD2 receptor.

The molecule `CC[C@H](C)[C@H](NC(=O)[C@H](Cc1ccccc1)NC(=O)[C@H](CC(=O)O)NC(=O)[C@H](CCCNC(=N)N)NC(=O)[C@@H](NC(=O)[C@H](Cc1ccccc1)NC(=O)[C@H](CCCCN)NC(=O)[C@H](CO)NC(=O)[C@H](CC(C)C)NC(=O)[C@H](CCCNC(=N)N)NC(=O)[C@H](CCSC)NC(=O)[C@@H](N)CCC(=O)O)c1ccccc1)C(=O)N[C@@H](CC(C)C)C(=O)N[C@@H](CCC(N)=O)C(=O)N[C@@H](CCCNC(=N)N)C(=O)N[C@@H](CCCCN)C(=O)N[C@@H](CCCCN)C(=O)O` [CSP1-F8FG] (H-EMRLSKF[Phg]RDFILQRKK-OH; N-terminus assumed) gave an EC50 on ComD1 receptor of 884 nM. Also, at ComD2 receptor (TIGR4pcomX::lacZ, 10 µM peptide, only analogs with greater than 75% activation compared to CSP2 were taken to EC50), the “ComD2 primary agonism screening: low induction, EC50 not determined” value is “–^e”.

With `CC[C@H](C)[C@H](NC(=O)[C@H](Cc1ccccc1)NC(=O)[C@H](CC(=O)O)NC(=O)[C@H](CCCNC(=N)N)NC(=O)[C@H](CCc1ccccc1)NC(=O)[C@H](Cc1ccccc1)NC(=O)[C@H](CCCCN)NC(=O)[C@H](CO)NC(=O)[C@H](CC(C)C)NC(=O)[C@H](CCCNC(=N)N)NC(=O)[C@H](CCSC)NC(=O)[C@@H](N)CCC(=O)O)C(=O)N[C@@H](CC(C)C)C(=O)N[C@@H](CCC(N)=O)C(=O)N[C@@H](CCCNC(=N)N)C(=O)N[C@@H](CCCCN)C(=O)N[C@@H](CCCCN)C(=O)O` [CSP1-F8HF], the EC50 on ComD1 receptor is 43.4 nM; on ComD2 receptor it was above 1000 nM.

Regarding `CC[C@H](C)[C@H](NC(=O)[C@@H](NC(=O)[C@H](CC(=O)O)NC(=O)[C@H](CCCNC(=N)N)NC(=O)[C@H](Cc1ccccc1)NC(=O)[C@H](Cc1ccccc1)NC(=O)[C@H](CCCCN)NC(=O)[C@H](CO)NC(=O)[C@H](CC(C)C)NC(=O)[C@H](CCCNC(=N)N)NC(=O)[C@H](CCSC)NC(=O)[C@@H](N)CCC(=O)O)c1ccccc1)C(=O)N[C@@H](CC(C)C)C(=O)N[C@@H](CCC(N)=O)C(=O)N[C@@H](CCCNC(=N)N)C(=O)N[C@@H](CCCCN)C(=O)N[C@@H](CCCCN)C(=O)O` [CSP1-F11FG] (H-EMRLSKFFRD[Phg]ILQRKK-OH; N-terminus assumed), the EC50 at ComD1 receptor and on ComD2 receptor was above 1000 nM in each case.

For the molecule `CC[C@H](C)[C@H](NC(=O)[C@H](CCc1ccccc1)NC(=O)[C@H](CC(=O)O)NC(=O)[C@H](CCCNC(=N)N)NC(=O)[C@H](Cc1ccccc1)NC(=O)[C@H](Cc1ccccc1)NC(=O)[C@H](CCCCN)NC(=O)[C@H](CO)NC(=O)[C@H](CC(C)C)NC(=O)[C@H](CCCNC(=N)N)NC(=O)[C@H](CCSC)NC(=O)[C@@H](N)CCC(=O)O)C(=O)N[C@@H](CC(C)C)C(=O)N[C@@H](CCC(N)=O)C(=O)N[C@@H](CCCNC(=N)N)C(=O)N[C@@H](CCCCN)C(=O)N[C@@H](CCCCN)C(=O)O` [CSP1-F11HF], the figures for the EC50 at ComD1 receptor and on ComD2 receptor were 65.8 nM and above 1000 nM, respectively.

For `CCCC[C@H](NC(=O)[C@H](Cc1ccccc1)NC(=O)[C@H](CC(=O)O)NC(=O)[C@H](CCCNC(=N)N)NC(=O)[C@H](Cc1ccccc1)NC(=O)[C@H](Cc1ccccc1)NC(=O)[C@H](CCCCN)NC(=O)[C@H](CO)NC(=O)[C@H](CC(C)C)NC(=O)[C@H](CCCNC(=N)N)NC(=O)[C@H](CCSC)NC(=O)[C@@H](N)CCC(=O)O)C(=O)N[C@@H](CC(C)C)C(=O)N[C@@H](CCC(N)=O)C(=O)N[C@@H](CCCNC(=N)N)C(=O)N[C@@H](CCCCN)C(=O)N[C@@H](CCCCN)C(=O)O` [CSP1-I12NL] (H-EMRLSKFFRDF[Nle]LQRKK-OH; N-terminus assumed), the EC50 on ComD1 receptor is 6.68 nM; at ComD2 receptor, above 1000 nM.

For `CCC[C@H](NC(=O)[C@H](Cc1ccccc1)NC(=O)[C@H](CC(=O)O)NC(=O)[C@H](CCCNC(=N)N)NC(=O)[C@H](Cc1ccccc1)NC(=O)[C@H](Cc1ccccc1)NC(=O)[C@H](CCCCN)NC(=O)[C@H](CO)NC(=O)[C@H](CC(C)C)NC(=O)[C@H](CCCNC(=N)N)NC(=O)[C@H](CCSC)NC(=O)[C@@H](N)CCC(=O)O)C(=O)N[C@@H](CC(C)C)C(=O)N[C@@H](CCC(N)=O)C(=O)N[C@@H](CCCNC(=N)N)C(=O)N[C@@H](CCCCN)C(=O)N[C@@H](CCCCN)C(=O)O` [CSP1-I12NV] (H-EMRLSKFFRDF[Nva]LQRKK-OH; N-terminus assumed), the EC50 on ComD1 receptor stood at 13.8 nM; at ComD2 receptor, 853 nM.

Regarding `CCCC[C@H](NC(=O)[C@H](CCCNC(=N)N)NC(=O)[C@H](CCSC)NC(=O)[C@@H](N)CCC(=O)O)C(=O)N[C@@H](CO)C(=O)N[C@@H](CCCCN)C(=O)N[C@@H](Cc1ccccc1)C(=O)N[C@@H](Cc1ccccc1)C(=O)N[C@@H](CCCNC(=N)N)C(=O)N[C@@H](CC(=O)O)C(=O)N[C@@H](Cc1ccccc1)C(=O)N[C@H](C(=O)N[C@@H](CC(C)C)C(=O)N[C@@H](CCC(N)=O)C(=O)N[C@@H](CCCNC(=N)N)C(=O)N[C@@H](CCCCN)C(=O)N[C@@H](CCCCN)C(=O)O)[C@@H](C)CC` [CSP1-L4NL], the EC50 at ComD1 receptor was 13.5 nM; on ComD2 receptor, above 1000 nM.

With CSP1-F7Y (peptide), the EC50 of activation of pcomX::lacZ (β-galactosidase) in reporter strain D39pcomX::lacZ (group I, ComD1) in assay [1] is 344 nM.

Turning to CSP1-F8FG (peptide), in assay [1], the EC50 of activation of pcomX::lacZ (β-galactosidase) in reporter strain D39pcomX::lacZ (group I, ComD1) was 884 nM.

As to CSP1-F8Y (peptide), the EC50 of activation of pcomX::lacZ (β-galactosidase) in reporter strain D39pcomX::lacZ (group I, ComD1) in assay [1] turned out to be 85 nM.

Regarding CSP1-F11Y (peptide), in assay [1], the EC50 of activation of pcomX::lacZ (β-galactosidase) in reporter strain D39pcomX::lacZ (group I, ComD1) is 95.6 nM.

Consider CSP1-I12V (peptide), for which, in assay [1], the EC50 of activation of pcomX::lacZ (β-galactosidase) in reporter strain D39pcomX::lacZ (group I, ComD1) stood at 15.3 nM.

With CSP1-L4V (peptide), the EC50 of activation of pcomX::lacZ (β-galactosidase) in reporter strain D39pcomX::lacZ (group I, ComD1) in assay [1] was 113 nM.

CSP1-L13V (peptide) displayed an EC50 of activation of pcomX::lacZ (β-galactosidase) in reporter strain D39pcomX::lacZ (group I, ComD1) in assay [1] of 31 nM.

Turning to “competence stimulating peptide 1 (CSP1) (from UniProt P60242 25-41)”, in assay [1], the EC50 of activation of pcomX::lacZ (β-galactosidase) in reporter strain D39pcomX::lacZ (group I, ComD1) amounted to 10.3 nM.

One may read the EC50 as the concentration that produces a half-maximal response. Low values mean a more potent agent, high ones a less potent agent.
